Data published in patent US20230000888A1, “NAD-PRECURSORS AND DIETARY RESTRICTION FOR TREATING AGE RELATED MEDICAL CONDITIONS” (Leibniz-Institut für Alternsforschung - …, priority 2019, published 2023).
“Also recorded” adds a separate entry of the source. Structures can show the parent of a compound that is named as a salt.

What was measured:
CMPs [1] = assay: OCR of CMPs in glucose-restricted medium from old mice fed CRMs with or without NAD-precursor; type: in vivo; conditions: old mice (22-24 months), 2 weeks, glucose depletion, FIG. 15
Method: FIG. 15—Old (22-24 months old) mice were exposed for 2 weeks to the indicated diet: ad libitum (AL), Metformin (met), NAD-precursor (NR), NRM—combination of NR plus Metformin. Curves show respirometry analysis of the OCR of freshly isolated CMPs. The OCRs were continuously measured for 12h in freshly isolated CMPs grown in glucose-restricted medium (1 mM=R).
To test whether NAD precursor supplementation would cooperate with specific CRMs that mimic a certain sub-pathway induced by CRD, different classes of CRMs were employed. We tested the combined effects of NAD supplementation with • (a) Metformin—a CRM, which induces mitochondrial stress • (b) Pterostilbene—a CRM which induces Sirtuin-dependent stress responses including autophagy • (c) Spermidine—a CRM, which induces autophagy (ad ownstream target of sirtuins (see above)
Old mice (22-24 months) were fed with CRMs (a-c) with or without combination with NAD-precursor supplementation for 2 weeks before analysis. Freshly isolated hematopoietic cells (CMPs) were tested for a rescue in responsiveness to activate mitochondria in response to glucose depletion—a marker of metabolic improvement induced by CRD in young mice or by a combination of NAD precursor supplementation plus CRD in old mice. […]

female Drosophila = conditions: 400 μM, high-fat diet; cited from earlier work
old mice = conditions: previous studies; cited from earlier work
HSCs (CD150+CD34−LSK) = assay: Competitive transplantation of HSCs from dietary cohorts, repopulation capacity (peripheral blood chimerism); type: in vivo; conditions: HSCs from young mice; 2 weeks intervention; FIG. 14A
CMPs [2] = assay: Respirometry (OCR) of freshly isolated CMPs from mice fed NR, DR or NR/DR; type: in vivo; conditions: 2 weeks
Excerpt: (§1) FIG. 13 (A-J) Young (2-3 month old) and old (22-24 month old) mice were exposed for 2 weeks to the indicated diet: ad libitum diet (AL), dietary restriction (DR=CRD), NAD-precursor supplementation (=NR), NR/DR—combination of NR plus DR.
(A-C) Respirometry analysis of the OCR of freshly-isolated CMPs in: (A) young and (B) old mice; (C) Quantification of OCR at basal level of the indicated groups as measured in (A,B, before oligomycin-application, marked by 0). N=4-6 mice per group. The Data were normally distributed (Shapiro-Wilk test) after log transformation. Error bars represent SD. P-values were calculated on average data of 4 time points using 2-way ANOVA with Tukey's multiple comparisons test on log-transformed data.
To experimentally test whether mitochondrial enhancement could re-empower DR (=CRD) in old mice, young and old mice were exposed to NAD+ supplementation by feeding of nicotinamide riboside (NR). In addition, the mice were exposed for 2 weeks to DR (=CRD), starting 1 week after NR pre-feeding, or continuous AL feeding.

[3] = system: 22-24 months old female mice; assay: Lifespan (Kaplan Meier survival) of old mice under long-term dietary treatments; type: in vivo
Method: (B) Kaplan Meier survival analysis in cohorts of mice that were exposed to DR-alone, NR-alone, or NR/DR co-treatment compared to AL-feeding. Dietary interventions were started at the age of 22-24 months and continued over lifetime. […] P-values were calculated using Mantel-Cox test. The p-values that are shown next to the intervention naming refer to the comparison of the intervention to the AL-diet group.
To test effects of these dietary intervention on organism lifespan, 4 cohorts of 22-24 months old female mice (n=14-15 mice per group) were exposed to long-term treatments (until the end of life or the occurrence of humane endpoints).

[4] = system: stress response genes in HSCs; assay: NanoString mRNA analysis of stress response genes in freshly isolated HSCs from dietary cohorts; type: in vivo, mice; conditions: 2 weeks, listed as NR-alone
Excerpt: as §1
(G-K) NanoString mRNA analysis of stress response genes in freshly-isolated HSCs from young (Y) and old (O) mice that were exposed to ad libitum (AL) or dietary restriction (DR diet for 2 weeks) of NAD-precursor treatment (NR) or a combination of NR plus DR (=NR/DR). The dotted lines represent the q-value of 0.05.
To analyze whether the NR/DR-mediated re-installment of mitochondrial metabolic plasticity in HSCs from old mice could rescue the induction of metabolic stress signals, freshly isolated HSCs from 2-week dietary cohorts were analyzed with the same NanoString assay as described above.
Measuring of RNA expression by NanoString was done according to our previous publication (Chen et al., 2019) and according to manufacturer protocol (NanoString technologies). In brief, 1×10^4 cells were lysed in 2 μL of lysis/binding solution (Applied Biosystems, 8500G14). […]

[5] = system: stress response genes in MPPs (CD34+Flt3−LSK); assay: NanoString analysis of stress response genes in MPPs pre-treated in vitro with NR followed by 3I or vehicle; type: cell-based, mice
Method: (C,D) NanoString analysis on the expression of stress response genes was carried out on 10,000 MPPs (CD34^+Flt3^−LSK) from young (3-4 months, n=4) and old mice (22-24 months, n=4). MPPs were pre-treated in culture with 1 mM NR or DMSO (Con) for 12h followed by treatment with 31 or Vehicle (Veh: 0.4% DMSO) for 12h under continuation of NR or Veh treatment. (C,D) Volcano plots for the NanoString analysis.
(G,H) NanoString analysis on the expression of stress response genes was carried out on 10,000 MPPs (CD34^+Flt3^−LSK) from young (3-4 months, n=4) and old mice (22-24 months, n=4). MPPs were pre-treated in vitro with 1 mM NR or DMSO (Con) for 12h followed by treatment with 31 or Vehicle (Veh: 0.4% DMSO) for 12h. The NR treatment was continued for the time window of 12-24h. (G, H) Volcano plots on the NanoString analysis of stress response genes.
(§2) To test the hypothesis that NAD(P) availability limits the potential of HSPCs from old mice to respond to changes in nutrient availability, freshly isolated HSCs from young and old mice were exposed to inhibitors of mitochondrial nutrient uptake.
Measuring of RNA expression by NanoString was done according to our previous publication (Chen et al., 2019) and according to manufacturer protocol (NanoString technologies). In brief, 1×10^4 cells were lysed in 2 μL of lysis/binding solution (Applied Biosystems, 8500G14). The cell lysate was then used for hybridization reaction as following: 2 μL of cell lysate was mixed with 5 μL of nCounter hybridization buffer (NanoString), 2 μL of Core Tagset, 2 μL of extension Tagset, 0.5 μL of […] Probe A working pool, 0.5 μL of […] probe A extension Pool, 0.5 μL of 3 nm Probe B working pool, and 0.5 μL of 3 nM Probe B extension pool (from IDT technologies). 2 μL of Nuclease-free water was added to each reaction to reach a final volume of 15 μL. The reaction mixture was prepared in Strip tubes (from NanoString technologies). Then it was incubated at 67° C. using thermal cycler (Masterycler from Eppendorf) for 16 h. Afterward, the Nanostring chemistry was processed automatically using nCounter prep-station 5s (NanoString technologies) according to manufacturer protocol. Directly after the run, the nCounter Cartridge was loaded into nCounter digital analyzer 5s (NanoString technologies). For NanoString analysis on young and old mice exposed to DR or AL food, freshly FACS-Sorted MPPs (CD34^+Flt3^− LSK) were used. […] Cells from NR treatment and DMSO were divided into 2 halves and further treated with 3I (6 μM each) or DMSO as control. The cells were harvested for NanoString analysis as described above. Data analysis was done after background correction using nSolver advanced analysis software (v.4) and (R software v 3.3.2.). The following housekeeping genes were used for normalization: ActB, B2M, Gapdh, Gusb, Hprt, PGK1, Polr1b, Polr2a, Ppia, Rpl19, Sdha, and Tbp. Heatmaps and volcano plots was done using GraphPad prism software version 8.

CMPs [6] = assay: Seahorse basal oxygen consumption rate after NR pre-treatment followed by 3I; type: cell-based, mice; conditions: FIG. 12F
Method: (F) Basal oxygen consumption rate in CMPs from young (3-5 months, n=4) and old mice (22-24 months, n=4). Cells were either pretreated with 1 mM […] (NR) or DMSO (Con) for 12 h. This was followed by treatment for 12h in vitro to combination of 3 inhibitors of mitochondrial nutrient uptake (by BPTES=6 uM, Etomoxir=6 uM, UK5099=6 uM) or DMSO as control. The data were not normally distributed (Shapiro-Wilk test) and the Mann-Whitney test was used for the calculation of p-values.
as §2
For CMP and GMP 80,000 cells were used. For MPP 60,000 cells were used.

HSCs = assay: HSC culture with NR pre-treatment followed by 3I, number of CD48−Sca1+ cells; type: cell-based; conditions: NR-treated (1 mM) HSCs from old mice; 3I 6 μM each; FIG. 12E
Excerpt: The NR treatment was continued on das 3 and 4. […] N=3 HSC cultures derived from 3 individual mice per group. […] Error bars depict SD.
as §2
For testing the response of HSPCs to the blocking of glycolysis or mitochondrial ATP synthesis, 2-DG (Sigma, D8375) or oligomycin A (Sigma, 75351) were used. For the inhibition of nutrient uptake into mitochondria, three inhibitors (3I) were used. BPTES (Sigma, SML0601) blocks […] uptake, Etomoxir (Sigma E1905) blocks Fatty acids uptake, and UK5099 (Sigma PZ0160) blocks pyruvate uptake. The final concentration of each inhibitor in the culture medium is 6 μM. Same amount of DMSO was used in the medium as control. For determination of cell number after NR treatment 500 HSCs from young (2-3 months) and old (22-24 months) were pre-incubated either with 1 mM NR (provided by Prof. Johan Auwerx Lab) or DMSO as control for 2 days followed by 2 days treatment with the inhibitors (BPTES, Etomoxir and UK5099, 6 μM each) or same amount of DMSO as control. The cells were then analyzed by BD LSR fortessa.

[7] = Y.Con + 3I versus O.NR + 3I, MPPs, 12 h pre-treatment with NR

CN(C)C(=N)N=C(N)N [metformin, Metformin-Hydrochlorid, reference compound]
synergistic effects of NAD precursor supplementation combined with the CRM on inducing mitochondria activity (OCR) (CMPs [1]): synergistic effects on inducing mitochondria activity

Oc1ccc(C=Cc2cc(O)cc(O)c2)cc1 [resveratrol, Resveratrol]
extension of the lifespan (female Drosophila): 10%-15%

NC(=O)c1ccc[n+]([C@@H]2O[C@H](CO)[C@@H](O)[C@H]2O)c1 [NR, Nicotinamide riboside]
increase in lifespan when applied to old mice (old mice): 6.9% | repopulation capacity of HSCs (HSCs (CD150+CD34−LSK)): increased the repopulation capacity | mitochondrial respiration compared to AL-fed mice (CMPs [2]; old mice, FIG. 13B,C): neither of the single treatments was sufficient to induce mitochondrial respiration | mitochondrial respiration compared to AL-fed mice (CMPs [2]; young mice, FIG. 13A,C): significant increases in mitochondrial respiration | increase in median life expectancy compared to AL ([3]; late-life treatment of old mice, this study): 10% | lifespan compared to AL-fed control mice ([3]; treatment started at 22-24 months, continued over lifetime, FIG. 14B): slight increases in lifespan | induction of metabolic stress signals (stress response genes) ([4]; HSCs from young mice, FIG. 13G): induction of health-promoting stress response genes in young mice; also recorded: induced metabolic stress signals | induction of metabolic stress signaling (stress response genes) ([4]; HSCs of old mice, FIG. 13I,K): neither of the single treatments, NR-alone (FIG. 13I) or DR-alone (FIG. 13J) was able to induce metabolic stress signaling | IDH1-mRNA LogZFC [5, 7]: −2.62 | Ino1-mRNA LogZFC [5, 7]: −1.78 | Myh9-mRNA LogZFC [5, 7]: −2.45 | NRas-mRNA LogZFC [5, 7]: −2.16 | Pds5A-mRNA LogZFC [5, 7]: −3.08 | atp5a1-mRNA LogZFC [5, 7]: 1.11 | unspliced XBP1-mRNA LogZFC [5, 7]: 2.56 | changes in the transcription of stress response genes in old vs. young cells ([5]; cells exposed to 3I-treatment, 1 mM NR, FIG. 12H): reverted changes in the transcription of stress response genes | pre-existing, age-related changes in transcription of stress response genes ([5]; old vs. young cells not exposed to 3I-treatment, 1 mM NR, FIG. 11C-E): no significant effects | response to 3I-treatment: oxidative metabolism (CMPs [6]; NR-treated (1 mM) cells from old mice, 3I 6 uM each): reduction of oxidative metabolism | oxidative metabolism (basal oxygen consumption rate) (CMPs [6]; cells from old mice, 1 mM NR): rescued oxidative metabolism to a similar level as observed in HSCs from young mice | response to 3I-treatment: cell proliferation (HSCs): suppression of cell proliferation
